Laboratory results: the NIST ThermoML archive (doi:10.1021/je020053r)
± gives the expanded uncertainty stated by the source.

Assays:
[1] = 293.15 K; 101.33 kPa; Liquid
[2] = refractive index (Na D-line) (dimensionless); settings: 293.15 K; 101.33 kPa; Liquid; Standard Abbe refractometry

| refractive index [2] | SMILES | mass density [1] [kg/m3] |
| --- | --- | --- |
| – | O=Cc1ccco1 [2-furaldehyde] | 1128.5 ± 15 |
| – | CCCCCC [hexane] | 659.3 ± 5 |
| 1.333 ± 0.0007 | O [water] | – |
